Experimental findings from patent US8435980B2 (AbbVie Inc., priority 2009, dated 2013) are described below.

Molecules are shown by their SMILES. pKi: −log10 of the molar value.

In the test the target is T1, Cdc7 (BEV coexpressed huCDC7/DBF4) (Homo sapiens, UniProt O00311).
T1 construct: made in house; host or cells: BEV (baculovirus expression vector) co-expression; insect cells are implied but no cell line is named
In words: Cdc7 enzyme inhibition assay ([33P]ATP, biotinylated peptide substrate, FlashPlate). It is filed as biochemical. Particulars: Table 3; enzyme inhibition data (Ki). On the procedure: Cdc7 (BEV coexpressed huCDC7/DBF4) is prepared internally. Cdc7 assays are conducted as follows with final concentrations as listed. […] Reactions are quenched after 1 hr by the addition of 90 μL stop buffer (50 mM EDTA, 2M NaCl). […] (Ki) for exemplary compounds.

What is called pKi is the negative decadic logarithm of the Ki, by convention in mol/L. High values mean a low Ki, low ones a high Ki.

T1 sequence (O00311 whole entry): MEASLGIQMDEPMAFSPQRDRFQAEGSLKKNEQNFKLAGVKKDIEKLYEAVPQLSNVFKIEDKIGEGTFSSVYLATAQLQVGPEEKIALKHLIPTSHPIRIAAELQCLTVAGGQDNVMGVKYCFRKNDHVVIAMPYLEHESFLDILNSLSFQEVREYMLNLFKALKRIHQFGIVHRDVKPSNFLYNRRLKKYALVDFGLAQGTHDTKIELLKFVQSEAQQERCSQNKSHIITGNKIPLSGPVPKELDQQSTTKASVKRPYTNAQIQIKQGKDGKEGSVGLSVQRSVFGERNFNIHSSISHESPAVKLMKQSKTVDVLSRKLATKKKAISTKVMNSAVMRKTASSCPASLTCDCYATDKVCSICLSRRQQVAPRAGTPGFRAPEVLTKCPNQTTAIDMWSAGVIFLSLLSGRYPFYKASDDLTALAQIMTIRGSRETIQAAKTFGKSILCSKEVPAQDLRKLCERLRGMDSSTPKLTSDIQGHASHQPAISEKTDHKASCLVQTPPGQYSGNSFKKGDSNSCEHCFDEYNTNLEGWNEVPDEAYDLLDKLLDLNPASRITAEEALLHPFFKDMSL
T1 sequence (Q9UBU7 whole entry partner): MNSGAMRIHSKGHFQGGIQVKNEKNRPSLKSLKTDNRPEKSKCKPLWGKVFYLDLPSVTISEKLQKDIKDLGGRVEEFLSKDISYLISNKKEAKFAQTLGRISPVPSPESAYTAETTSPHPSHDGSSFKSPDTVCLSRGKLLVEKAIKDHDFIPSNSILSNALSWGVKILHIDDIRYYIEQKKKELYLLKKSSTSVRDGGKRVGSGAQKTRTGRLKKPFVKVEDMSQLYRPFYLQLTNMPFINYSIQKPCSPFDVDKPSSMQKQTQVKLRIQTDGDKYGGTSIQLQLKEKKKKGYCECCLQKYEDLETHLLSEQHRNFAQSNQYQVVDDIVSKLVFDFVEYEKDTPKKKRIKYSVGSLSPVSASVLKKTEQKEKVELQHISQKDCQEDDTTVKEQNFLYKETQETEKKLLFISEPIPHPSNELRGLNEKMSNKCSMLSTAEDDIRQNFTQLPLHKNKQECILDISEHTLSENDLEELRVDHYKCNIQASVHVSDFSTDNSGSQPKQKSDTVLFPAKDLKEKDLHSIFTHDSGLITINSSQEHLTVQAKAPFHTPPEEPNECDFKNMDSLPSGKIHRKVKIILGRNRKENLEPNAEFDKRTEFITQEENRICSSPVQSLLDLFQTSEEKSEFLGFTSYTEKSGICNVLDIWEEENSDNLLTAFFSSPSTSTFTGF

`Oc1ccc(CCNc2cc(-c3c[nH]c4ncccc34)cc(Cl)n2)cc1` [Example 398, 4-(2-{[6-chloro-4-(1H-pyrrolo[2,3-b]pyridin-3-yl)pyridin-2-yl]amino}ethyl)phenol] showed a pKi greater than 8.00.
In the case of `Clc1cc(-c2c[nH]c3ncccc23)cc(NCCc2ccc3c(c2)OCO3)n1` [Example 399, N-[2-(1,3-benzodioxol-5-yl)ethyl]-6-chloro-4-(1H-pyrrolo[2,3-b]pyridin-3-yl)pyridin-2-amine] it was greater than 8.00.
In the case of `Clc1cc(-c2c[nH]c3ncccc23)cc(NCc2ccc3c(c2)OCO3)n1` [Example 400, N-(1,3-benzodioxol-5-ylmethyl)-6-chloro-4-(1H-pyrrolo[2,3-b]pyridin-3-yl)pyridin-2-amine] it was greater than 8.00.
In the case of `COc1ccc(CCNc2cc(-c3c[nH]c4ncccc34)cc(Cl)n2)cc1` [Example 401, 6-chloro-N-[2-(4-methoxyphenyl)ethyl]-4-(1H-pyrrolo[2,3-b]pyridin-3-yl)pyridin-2-amine] it was greater than 8.00.
`Clc1cc(-c2c[nH]c3ncccc23)cc(NC2CCN(Cc3ccccc3)CC2)n1` [Example 402, N-(1-benzylpiperidin-4-yl)-6-chloro-4-(1H-pyrrolo[2,3-b]pyridin-3-yl)pyridin-2-amine] had a pKi greater than 8.00.
The result for `Clc1cc(-c2c[nH]c3ncccc23)cc(NCCc2ccncc2)n1` [Example 403, 6-chloro-N-[2-(pyridin-4-yl)ethyl]-4-(1H-pyrrolo[2,3-b]pyridin-3-yl)pyridin-2-amine] reads greater than 8.00.
`Clc1cc(-c2c[nH]c3ncccc23)cc(NC2Cc3ccccc3C2)n1` [Example 404, 6-chloro-N-(2,3-dihydro-1H-inden-2-yl)-4-(1H-pyrrolo[2,3-b]pyridin-3-yl)pyridin-2-amine] showed a pKi greater than 8.00.
With `Clc1cc(-c2c[nH]c3ncccc23)cc(NCCc2c[nH]c3ccccc23)n1` [Example 405, 6-chloro-N-[2-(1H-indol-3-yl)ethyl]-4-(1H-pyrrolo[2,3-b]pyridin-3-yl)pyridin-2-amine], the negative logarithm of the Ki (pKi) is greater than 8.00.
In the case of `Cc1cccc(CN2CC(C(=O)N[C@H]3CC[C@H](Nc4cc(-c5c[nH]c6ncccc56)cc(Cl)n4)CC3)C2)c1C` [Example 406, N-(trans-4-{[6-chloro-4-(1H-pyrrolo[2,3-b]pyridin-3-yl)pyridin-2-yl]amino}cyclohexyl)-1-(2,3-dimethylbenzyl)azetidine-3-carboxamide] it was greater than 8.00; in that of `O=C(N[C@H]1CC[C@H](Nc2cc(-c3c[nH]c4ncccc34)cc(Cl)n2)CC1)C1CN(Cc2ccc3cc[nH]c3c2)C1` [Example 407, N-(trans-4-{[6-chloro-4-(1H-pyrrolo[2,3-b]pyridin-3-yl)pyridin-2-yl]amino}cyclohexyl)-1-(1H-indol-6-ylmethyl)azetidine-3-carboxamide], greater than 8.00.
The result for `Clc1cc(-c2c[nH]c3ncccc23)cc(Nc2ccc(OCc3ccccc3)cc2)n1` [Example 408, N-[4-(benzyloxy)phenyl]-6-chloro-4-(1H-pyrrolo[2,3-b]pyridin-3-yl)pyridin-2-amine] reads greater than 8.00; that for `Clc1cc(-c2c[nH]c3ncccc23)cc(NCc2nc3ccccc3[nH]2)n1` [Example 409, N-(1H-benzimidazol-2-ylmethyl)-6-chloro-4-(1H-pyrrolo[2,3-b]pyridin-3-yl)pyridin-2-amine], greater than 8.00.
In the case of `Clc1cc(-c2c[nH]c3ncccc23)cc(NCc2ccc3[nH]ccc3c2)n1` [Example 410, 6-chloro-N-(1H-indol-5-ylmethyl)-4-(1H-pyrrolo[2,3-b]pyridin-3-yl)pyridin-2-amine] it was greater than 8.00.
The compound `COc1ccc(Nc2cc(-c3c[nH]c4ncccc34)cc(Cl)n2)cc1` [Example 411, 6-chloro-N-(4-methoxyphenyl)-4-(1H-pyrrolo[2,3-b]pyridin-3-yl)pyridin-2-amine] showed a pKi greater than 8.00.
`COc1cc(Nc2cc(-c3c[nH]c4ncccc34)cc(Cl)n2)cc(OC)c1OC` [Example 412, 6-chloro-4-(1H-pyrrolo[2,3-b]pyridin-3-yl)-N-(3,4,5-trimethoxyphenyl)pyridin-2-amine] showed a pKi greater than 8.00.
The compound `Clc1cc(-c2c[nH]c3ncccc23)cc(Nc2ccc(-n3ccnc3)cc2)n1` [Example 413, 6-chloro-N-[4-(1H-imidazol-1-yl)phenyl]-4-(1H-pyrrolo[2,3-b]pyridin-3-yl)pyridin-2-amine] had a pKi greater than 8.00.
The result for `COc1ccc(CNc2cc(-c3c[nH]c4ncccc34)cc(Cl)n2)cc1OC` [Example 414] reads greater than 8.00.
The result for `OC(CNc1cc(-c2c[nH]c3ncccc23)cc(Cl)n1)c1ccccc1` (stereo not shown) [Example 415, 2-{[6-chloro-4-(1H-pyrrolo[2,3-b]pyridin-3-yl)pyridin-2-yl]amino}-1-phenylethanol] reads greater than 8.00; that for `Clc1cc(-c2c[nH]c3ncccc23)cc(NCCCc2ccccc2)n1` [Example 416, 6-chloro-N-(3-phenylpropyl)-4-(1H-pyrrolo[2,3-b]pyridin-3-yl)pyridin-2-amine], greater than 8.00.
In the case of `CS(=O)(=O)c1ccc(CNc2cc(-c3c[nH]c4ncccc34)cc(Cl)n2)cc1` [Example 417, 6-chloro-N-[4-(methylsulfonyl)benzyl]-4-(1H-pyrrolo[2,3-b]pyridin-3-yl)pyridin-2-amine], the pKi was greater than 8.00.
`CSc1ccc(Nc2cc(-c3c[nH]c4ncccc34)cc(Cl)n2)cc1` [Example 418, 6-chloro-N-[4-(methylsulfanyl)phenyl]-4-(1H-pyrrolo[2,3-b]pyridin-3-yl)pyridin-2-amine] had a negative-log Ki (pKi) greater than 8.00.
The result for `Clc1cc(-c2c[nH]c3ncccc23)cc(Nc2ccc(Oc3ccccc3)cc2)n1` [Example 419, 6-chloro-N-(4-phenoxyphenyl)-4-(1H-pyrrolo[2,3-b]pyridin-3-yl)pyridin-2-amine] reads greater than 8.00.
In turn, `Clc1cc(-c2c[nH]c3ncccc23)cc(Nc2ccc(N3CCCCC3)cc2)n1` [Example 420, 6-chloro-N-[4-(piperidin-1-yl)phenyl]-4-(1H-pyrrolo[2,3-b]pyridin-3-yl)pyridin-2-amine] gave a negative logarithm of the Ki (pKi) greater than 8.00.
For `COC(=O)c1cnc2[nH]cc(-c3cc(Cl)nc(NC4CCCCC4)c3)c2c1` [Example 421, methyl 3-[2-chloro-6-(cyclohexylamino)pyridin-4-yl]-1H-pyrrolo[2,3-b]pyridine-5-carboxylate], the pKi was greater than 8.00.
The result for `O=C(CN1CCN(CCO)CC1)N[C@H]1CC[C@H](Nc2cc(-c3c[nH]c4ncccc34)cc(Cl)n2)CC1` [Example 422, N-(trans-4-{[6-chloro-4-(1H-pyrrolo[2,3-b]pyridin-3-yl)pyridin-2-yl]amino}cyclohexyl)-2-[4-(2-hydroxyethyl)piperazin-1-yl]acetamide] reads greater than 8.00.
With `Cc1cccc(C)c1N1CCN(CC(=O)N[C@H]2CC[C@H](Nc3cc(-c4c[nH]c5ncccc45)cc(Cl)n3)CC2)CC1` [Example 423, N-(trans-4-{[6-chloro-4-(1H-pyrrolo[2,3-b]pyridin-3-yl)pyridin-2-yl]amino}cyclohexyl)-2-[4-(2,6-dimethylphenyl)piperazin-1-yl]acetamide], the pKi was greater than 8.00.
In the case of `COc1cnc2[nH]cc(-c3cc(Cl)nc(NC4CCC(CC5CCC(NC6CCC6)CC5)CC4)c3)c2c1` (stereo not shown) [Example 424, 6-chloro-N-(4-{[4-(cyclobutylamino)cyclohexyl]methyl}cyclohexyl)-4-(5-methoxy-1H-pyrrolo[2,3-b]pyridin-3-yl)pyridin-2-amine] it was greater than 8.00; in that of `CCC(CC)NC1CCC(CC2CCC(Nc3cc(-c4c[nH]c5ncc(OC)cc45)cc(Cl)n3)CC2)CC1` (stereo not shown) [Example 425, 6-chloro-4-(5-methoxy-1H-pyrrolo[2,3-b]pyridin-3-yl)-N-(4-{[4-(pentan-3-ylamino)cyclohexyl]methyl}cyclohexyl)pyridin-2-amine], greater than 8.00.
The result for `COc1cnc2[nH]cc(-c3cc(Cl)nc(NC4CCC(CC5CCC(NCC6CCCC6)CC5)CC4)c3)c2c1` (stereo not shown) [Example 426, 6-chloro-N-[4-({4-[(cyclopentylmethyl)amino]cyclohexyl}methyl)cyclohexyl]-4-(5-methoxy-1H-pyrrolo[2,3-b]pyridin-3-yl)pyridin-2-amine] reads greater than 8.00.
`N[C@H]1CC[C@H](Nc2cc(-c3c[nH]c4ncc(OCCc5ccccn5)cc34)cc(Cl)n2)CC1` [Example 427, trans-N-(6-chloro-4-{5-[2-(pyridin-2-yl)ethoxy]-1H-pyrrolo[2,3-b]pyridin-3-yl}pyridin-2-yl)cyclohexane-1,4-diamine] showed a pKi greater than 8.00.
In the case of `CC(C)COc1cnc2[nH]cc(-c3cc(Cl)nc(N[C@H]4CC[C@H](N)CC4)c3)c2c1` [Example 428, trans-N-{6-chloro-4-[5-(2-methylpropoxy)-1H-pyrrolo[2,3-b]pyridin-3-yl]pyridin-2-yl}cyclohexane-1,4-diamine] it was greater than 8.00.
The result for `O=C(N[C@H]1CC[C@H](Nc2cc(-c3c[nH]c4ncccc34)cc(Cl)n2)CC1)C1CN(Cc2ccccn2)C1` [Example 429, N-(trans-4-{[6-chloro-4-(1H-pyrrolo[2,3-b]pyridin-3-yl)pyridin-2-yl]amino}cyclohexyl)-1-(pyridin-2-ylmethyl)azetidine-3-carboxamide] reads greater than 8.00; that for `COc1cnc2[nH]cc(-c3cc(Cl)nc(N[C@H]4CC[C@H](NC(=O)C(F)(F)F)CC4)c3)c2c1` [Example 430, N-(trans-4-{[6-chloro-4-(5-methoxy-1H-pyrrolo[2,3-b]pyridin-3-yl)pyridin-2-yl]amino}cyclohexyl)-2,2,2-trifluoroacetamide], greater than 8.00; that for `COc1ccc(-c2cnc3[nH]cc(-c4cc(Cl)nc(NC5CCCCC5)c4)c3c2)cn1` [Example 431, 6-chloro-N-cyclohexyl-4-[5-(6-methoxypyridin-3-yl)-1H-pyrrolo[2,3-b]pyridin-3-yl]pyridin-2-amine], greater than 8.00.
